The values below come from patent publication US20230057359A1, “NOVEL USE OF STEVIOL” (SUNTORY HOLDINGS LIMITED, priority 2019, published 2023).

Holding throughout (type): cell-based
Series [1] concerns adipocytes differentiated from normal human subcutaneous preadipocytes. The experiment in a line: Lipolysis test in adipocytes (free glycerol in culture supernatant). Conditions: for Relative lipolysis level (%): 24 hours, DMSO=100%. As to the method: Normal human subcutaneous preadipocytes were precultured using the growth medium in the same manner as in Example 1. The cells were detached using 0.25% trypsin-EDTA, seeded at 10,000 cells/100 μL/well to a 96-well plate using the growth medium, and cultured overnight in a CO2 incubator. On the next day, the medium was replaced with the differentiation medium (100 μL), and the cells were cultured for 10 days in a CO2 incubator to induce their differentiation into adipocytes. On the fourth and seventh days after the differentiation induction, the medium was replaced with a fresh differentiation medium (100 μL). Next, the medium was replaced with a differentiation medium supplemented with varying concentrations of steviol (10, 30 or 100 μg/mL, dissolved in 0.1% DMSO (final concentration)), and the cells were cultured for 24 hours in a CO2 incubator. Then, a free glycerol level in a culture supernatant was measured using Adipolysis Assay Kit (Cat. No. 10009381, Cayman Chemical Co.) according to the manufacturer's protocol. For the measurement, absorbance (540 nm) was measured using a plate reader (VARIOSKAN FLASH, Thermo Fisher Scientific Inc.), and a relative free glycerol concentration was calculated. A differentiation medium supplemented with 10 μM isoproterenol (ISP) was used as a positive control, and a vehicle control (DMSO) composed of a differentiation medium supplemented with 0.1% DMSO (final concentration) and a no-addition control composed of only the differentiation medium were used as negative controls. Significant difference among the test groups to be compared (no-addition group vs positive control group, vehicle control group vs steviol addition group) was tested by the Student's t test. The two-tailed test was conducted, and P<0.05 was regarded as having significant difference.

Series [2] relates to normal human subcutaneous preadipocytes differentiated into adipocytes. As to the kind of experiment: Fat accumulation test in adipocytes (oil red staining). Conditions: for Relative fat accumulation level (%): 10 days, DMSO=100%. As to the method:
Normal human subcutaneous preadipocytes were precultured using the growth medium in the same manner as in Example 1. The cells were detached using 0.25% trypsin-EDTA, seeded at 10,000 cells/100 μL/well to a 96-well plate using a growth medium, and cultured overnight in a CO2 incubator. On the next day, the medium was replaced with 100 μL of a differentiation medium supplemented with varying concentrations of steviol (12.5, 25, 50, 100 or 200 μg/mL, dissolved in 0.1% DMSO (final concentration)). The cells were cultured for 10 days in a CO2 incubator to induce their differentiation into adipocytes. On the fourth and seventh days after the differentiation induction, the medium was replaced with a fresh medium (100 μL) having the same composition as above. A differentiation medium supplemented with 25 mM LiCl (Cat. No. SML0559, Sigma-Aldrich Co., LLC) was used as a positive control, and a differentiation medium supplemented with 0.1% DMSO (final concentration) was used as a negative control. Cells cultured in a growth medium were used as an untreated control (Untreated). The cells thus cultured were subjected to oil red staining. Specifically, the cells were washed twice with 100 μL of DPBS (Cat. No. 14190250, Thermo Fisher Scientific Inc.). Then, the cells were fixed (room temperature, 10 min) in 100 μL of a 10% formalin solution (Cat. No. 061-00416, FUJIFILM Wako Pure Chemical Corp.). The cells were washed twice with 100 μL of DPBS, then incubated for 1 minute in 100 μL of 60% 2-propanol (Cat. No. 166-04836, FUJIFILM Wako Pure Chemical Corp.) that replaced the medium, and stained for 15 minutes in 100 μL of an oil red staining solution (Cat. No. 00625, Sigma-Aldrich Co., LLC) that replaced the 2-propanol solution. The cells were washed once with 100 μL of 60% 2-propanol and washed twice with 100 μL of DPBS. Then, cell images were taken in 100 μL of DPBS. After subsequent replacement with 120 μL of 100% 2-propanol, oil red was extracted by incubation for 5 minutes, and 100 μL of the extracts was transferred to each well of a fresh 96-well plate. Absorbance (520 nm) was measured using a plate reader (VARIOSKAN FLASH, Thermo Fisher Scientific Inc.), and a relative fat accumulation level was calculated. Significant difference of differentiation non-induced group vs differentiation induced group (negative control group) was tested (two-tailed), and P<0.05 was regarded as having significant difference. Also, significant difference of negative control group vs steviol addition group/positive control group was tested (two-tailed) by the Dunnett test, and P<0.05 was regarded as having significant difference.

For a further series, the system named is HepG2 cells. As to the kind of experiment: Cytotoxicity of steviol to hepatocytes (WST-8 viable cell count). Conditions: for Relative viable cell count (%): 24 hours, Control=100%. As to the method:
5×10^5 HepG2 cells (Cat. No. JCRB1054, JCRB) were precultured for 5 days in a T75 flask using a growth medium (DMEM (high glucose, Cat. No. D5796, Sigma-Aldrich Co., LLC) supplemented with 10% FBS (Cat. No. 172012, Sigma-Aldrich Co., LLC) and 1% penicillin-streptomycin (Cat. No. 09367-34, Nacalai Tesque Inc.)) in a CO2 incubator. The cells were detached using 0.25% trypsin-EDTA, seeded at 10,000 cells/100 μL/well to a 96-well plate using the growth medium, and cultured overnight in a CO2 incubator. On the next day, the medium was replaced with 100 μL of a growth medium supplemented with varying concentrations of steviol (0.001, 0.01, 0.1, 1, 10 or 100 μg/mL, dissolved in 0.1% DMSO (final concentration)), and the cells were cultured for 24 hours in a CO2 incubator. A vehicle control composed of a growth medium supplemented with 0.1% DMSO (final concentration) was used as a negative control (Control). Viable cell count measurement was performed by the WST-8 method. Specifically, the medium of each well after culture was replaced with 100 μL of growth medium supplemented with a 1/10 amount of viable cell count measurement reagent SF, and the cells were incubated in a CO2 incubator. 30 minutes later and 90 minutes later, absorbance (450 nm, reference wavelength: 630 nm) was measured using a plate reader (VARIOSKAN FLASH, Thermo Fisher Scientific Inc.), and absorbance difference per 60 minutes was regarded as a relative viable cell count.
Background: Formazan colour is commonly taken as a measure of viable cells.

Consider `C=C1C[C@@]23CC[C@H]4[C@@](C)(CCC[C@@]4(C)C(=O)O)[C@@H]2CC[C@]1(O)C3` [Steviol, steviol], for which the “lipolysis in adipocytes (in words)” value in series [1] (10, 30 or 100 μg/mL) was “promoted lipolysis in adipocytes in a concentration-dependent manner”. The figures for the “Relative lipolysis level (%)” value in series [1] (steviol 10 μg/mL), in series [1] (steviol 30 μg/mL) and in series [1] (steviol 100 μg/mL) were 99.5%, 115.5% and 123.4%, respectively. In addition, the “fat accumulation in adipocytes (in words)” value in series [2] (12.5 to 200 μg/mL) is “suppressed fat accumulation in adipocytes in a concentration-dependent manner”. Moreover, the “Relative fat accumulation level (%)” value in series [2] (steviol 12.5 μg/mL) was 98.3%; in series [2] (steviol 25 μg/mL), 91.3%; in series [2] (steviol 50 μg/mL), 80.7%; in series [2] (steviol 100 μg/mL) it was 70.8%; in series [2] (steviol 200 μg/mL), 40.0%. The “cytotoxicity to hepatocytes (in words)” value in the series with HepG2 cells (100 μg/mL steviol) is “no particular cytotoxicity to be noted was found”. Further, the “Relative viable cell count (%)” value with HepG2 cells (steviol 0.01 μg/mL) came to 98.8%; with HepG2 cells (steviol 0.1 μg/mL) it was 98.4%; in the series on HepG2 cells (steviol 1 μg/mL), 95.3%; with HepG2 cells (steviol 10 μg/mL), 95.6%; in the series on HepG2 cells (steviol 100 μg/mL), 87.7%.
